Patent US5075287A, “Muramyl peptide derivatives and immunoregulating compositions containing them” (priority 1989, dated 1991)
Where two headings read alike, the source gives them in different places.

Columns and labels:
[1] = test system: L-1210 mouse leukemia cells; experiment: Activation of macrophages (growth inhibition of tumor cells by intraperitoneal macrophages of treated mice, MTT assay); type: cell-based; details: macrophages taken 3 days after i.p. 0.2 ml of 500 μg/ml, macrophage:L-1210 20:1, 72 hours
[2] = test system: influenza HA vaccine (B/Nagasaki/1/87 strain); type: in vivo, female CDF1 mice; details: Experiment 1, 5000-fold dilution
[3] = test system: hepatitis B virus surface antigen (HBs); experiment: Hepatitis-vaccine enhancing activity (adjuvant activity): anti-HBs IgG in mouse serum by ELISA; type: in vivo, female CDF1 mice; details: Experiment 1, 5000-fold dilution
Procedure, shortened: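 Female CDF1 mice (n=7) given 0.2 ml i.p. of compound in lipid microspheres (1 mg/ml) mixed 1:1 with HBs antigen (50 μg/ml), boosted identically at 3 weeks. Sera from weekly fundus bleeds before and after boost. Anti-HBs IgG measured by ELISA.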

[4] = 4 W (after secondary stimulation at 3 weeks)
[5] = 5 W (after secondary stimulation at 3 weeks)

For `CCCCCCCCCCCCCC(=O)O[C@H](CCCCCCCCCCC)CC(=O)S[C@@H]1O[C@H](COC(=O)CCCCCCCCC)[C@@H](O)[C@H](O[C@H](C)C(=O)N[C@@H](C)C(=O)N[C@H](CCC(=O)OC)C(N)=O)[C@H]1NC(C)=O` [Example 14, N-[2-0-{2-Acetamido-2,3-dideoxy-6-0-decanoyl-1-S-((3R)-R-tetradecanoyloxytetradecanoyl)-1-thio-β-D-glucopyranos-3yl}-D-lactoyl]-L-alanyl-D-isoglutamine methylester], the “Growth inhibitory ratio of L-1210 mouse leukemia cells” value [1] was 96.4%, the “Anti HA serum antigen value (average value ± S.D.)” value (“Anti HA serum antigen value” for short) ([2]; 1 W after i.p. administration, compound in lipidmicrosphere + HA vaccine) was 0 O.D 415 nm and the “Anti HA serum antigen value” value ([2]; 2 W) was 0.110 ± 0.003 O.D 415 nm. The “Anti HA serum antigen value” value ([2]; 3 W) was 0.186 ± 0.007 O.D 415 nm, the “Anti HA serum antigen value” value [2, 4] was 0.974 ± 0.006 O.D 415 nm and the “Anti HA serum antigen value” value [2, 5] was 0.954 ± 0.002 O.D 415 nm. For the same molecule, the “Anti-HBs IgG antibody level in serum (ELISA absorbance at 415 nm)” value (from here on “Anti-HBs IgG antibody level in serum”) ([3]; 1 W after i.p. administration, compound in lipidmicrosphere + HBs) was 0 O.D 415 nm, the “Anti-HBs IgG antibody level in serum” value ([3]; 2 W) was 0.071 ± 0.000 O.D 415 nm and the “Anti-HBs IgG antibody level in serum” value ([3]; 3 W) was 0.104 ± 0.003 O.D 415 nm. The “Anti-HBs IgG antibody level in serum” value [3, 4] was 0.784 ± 0.022 O.D 415 nm and the “Anti-HBs IgG antibody level in serum” value [3, 5] was 0.846 ± 0.024 O.D 415 nm.
